Laboratory results from US8106024B2, “Method of treating cancer with an RPN2 gene expression inhibitor” (Taisho Pharmaceutical Co., Ltd., priority 2006, dated 2012).

Experiments:
PC-9/CDDP cell = test: Caspase activity in cisplatin-resistant lung cancer cells; format: cell-based, human; settings: 3 days
Protocol: (§1) A reagent for measurement of apoptosis was added to the plate after the measurement of the luciferase activity in Test Example 1, and the Caspase activity was measured. […] The Caspase activation rate was calculated with the control siRNA as 0%.
To suppress RPN2 gene expression RPN2 siRNA was transduced into PC-9/CDDP cell which is a cell line of human lung cancer ([…], differentiated gland cancer), and resistant to cisplatin (Cis) that is a anti-cancer drug. Then, the cell was cultured for 3 days in the presence of or in the absence of cisplatin (0.3 μM). Then, Caspase activity was measured in the same way as described in Test Example 2. In addition, for comparison, the same test was conducted also for the system to which control siRNA not suppressing any gene expression was introduced.

MCF7-ADR-Luc cells [1] = test: Apoptosis induction test, Caspase-3/7 activity; format: cell-based; settings: 3 days
Protocol: as §1
After 3 days, Caspase activity was measured in the same way as described in Test Example 2.

MCF7-ADR-Luc cells [2] = test: Apoptosis induction test, Hoechst staining; format: cell-based; settings: vs control siRNA
Protocol: Moreover, in addition to the Caspase activity, apoptosis induction was investigated with observation by Hoechst staining (the cells were washed with PBS (−), added with 4% PFA-0.1% Triton X-100-1 mg/ml Hoechst 33342/in PBS (−), and fixed and stained at room temperature for 20 minutes. The cells were washed with PBS (−), and then observed under fluorescence microscope.).

RPN2 gene [3] = test: RPN2 gene expression suppression test (real-time PCR); format: cell-based; settings: MCF7-ADR-Luc, 3 days, atelocollagen transfection array; remaining expression
Protocol: Into the atelocollagen cell transfection array prepared in Test Example 1 (1) were inoculated MCF7-ADR-Luc cells. After 3 days, cDNA was synthesized directly from the cell lysate, and real-time PCR was conducted, to investigate the RPN2 gene expression amount (SuperScript III Platinum CellsDirect Two-Step qRT-PCR: Invitrogen).

MCF7-ADR-Luc cells [4] = test: Tumor growth test in a nude mouse; format: in vivo; settings: 1 nmol siRNA/atelocollagen per tumor intratumoral + 20 mg/kg docetaxel i.p., 7 days after dosing, vs control siRNA
Protocol: According to the protocol shown in FIG. 6, 1×10^7 MCF7-ADR-Luc cells suspended in 100 μl PBS (−) were transplanted into the mammary fat pad of the nude mouse (4 weeks old, scalpel). After 7 days when the tumor radius reached about 5 mm, siRNA and DOC were administered. Herein, atelocollagen in the final concentration of 5 mg/ml (w/vol) and siRNA in 1 nmol per tumor were mixed, and then 200 μl of atelocollagen (manufactured by KOKEN CO., LTD.)/siRNA was administered into the tumor. At the same time, 20 mg/kg of docetaxel was administered into the abdominal cavity. After 7 days, the tumor radius was measured to compare the tumor volumes.

RPN2 gene [5] = test: RPN2 gene expression suppression test in a nude mouse (real-time RT-PCR of tumor); format: in vivo; settings: 1 nmol siRNA/atelocollagen per tumor + 20 mg/kg docetaxel, tumor collected after 1 day
Protocol: 1×10^7 MCF7-ADR-Luc cells suspended in 100 μl PBS (−) were transplanted into the mammary fat pad of the nude mouse (4 weeks old, scalpel). After 7 days, RPN2 siRNA and DOC were administered. Herein, atelocollagen in the final concentration of 5 mg/ml (w/vol) and RPN2 siRNA in 1 nmol per tumor were mixed, and then 200 μl of atelocollagen/siRNA was administered into the tumor. At the same time, 20 mg/kg of docetaxel was administered into the abdominal cavity. After 1 day, the tumor was collected and the total RNA was isolated, and RPN2 gene expression amount was measured with real-time RT-PCR (SYBR ExScript RT-PCR Kit: TaKaRa, LightCycler Real-Time PCR System: F. Hoffmann-La Roche Ltd.).
The RPN2 gene expression amount was measured in the same method as Test Example 5 except that RPN2 siRNA and DOC were administered at 6 weeks after MCF7-ADR-Luc cells were transplanted into the mammary fat pad of the nude mouse (4 weeks old, scalpel).

MCF7-ADR-Luc cells [6] = test: Apoptosis induction test in a nude mouse (TUNEL staining); format: in vivo; settings: dosed 6 weeks after transplant; siRNA/atelocollagen intratumoral + 20 mg/kg docetaxel; tumor collected after 4 days
Protocol: 1×10^7 MCF7-ADR-Luc cells suspended in 100 μl PBS (−) were transplanted into the mammary fat pad of the nude mouse (4 weeks old, scalpel). After 6 weeks, siRNA and DOC, or siRNA alone was administered. Atelocollagen in the final concentration of 5 mg/ml (w/vol) and siRNA in 1 nmol per tumor were mixed, and then 200 μl of atelocollagen/siRNA was administered into the tumor. At the same time, 20 mg/kg of docetaxel was administered into the abdominal cavity. After 4 days, the tumor was collected, and subjected to TUNEL staining (In Situ Cell Death Detection Kit: F. Hoffmann-La Roche Ltd.). The nucleus was subjected to counter staining with DAPI (4′,6-diamidino-2-phenylindole).

HepG2 = test: Cell survival in human liver cancer cells (CellTiter-Glo); format: cell-based
Protocol: HepG2, which is a cell line of human liver cancer, was inoculated into a 96 well plate in 5000/well. […] The control siRNA (dsRNA including a sense chain of Sequence No. 5 and an antisense chain of Sequence No. 6) was introduced as the negative control. At the same time with the siRNA, DOC was added in 1 nM of the final concentration. After the culture for 3 days, in order to determine the cell survival rate in each well, a quantification reagent for the live cells (CellTiter-Glo substrate: Promega KK) was added to each well, and the plate was stirred for 2 minutes, and left for 10 minutes. The luminescence was measured by a luminescence plate reader (ARVO: PerkinElmer).

Luciferase gene (GL3) = test: siRNA introduction efficiency (suppression of luciferase activity); format: cell-based; settings: MCF7-ADR-Luc, atelocollagen transfection array
Protocol: Luciferase gene (GL3) was stably transfected into multidrug-resistant MCF7-ADR cells of which the parental Cell line is MCF7 breast cancer cell. The cell line was expressing luciferase and designated as MCF7-ADR-Luc.
The MCF7-ADR-LUC cell obtained in (2) was inoculated into the array prepared in (1) in 4×10^3 cell number/well, and cultured for 3 days in the presence of 1 nM docetaxel (DOC). To the live cells were added luciferin, and from the luminescence value, cell growth inhibition rate and luciferase siRNA introduction efficiency were measured.
Moreover, siRNA introduction efficiency was evaluated with the suppression rate of the luciferase activity by introduction of luciferase siRNA (GL3siRNA: dsRNA including a sense chain of Sequence No. 7 and an antisense chain of Sequence No. 8), separately from siRNA corresponding to each gene. In addition, luciferin (0.5 mM final concentration: Promega KK) was added to the medium, and the luciferase activity was measured immediately by a luminescence plate reader (ARVO: PerkinElmer, Inc.). Introduction of GL3 siRNA suppressed the luciferase activity by 80% in comparison with the control siRNA.

N.N.[Cl][Pt][Cl] [cisplatin, reference compound]
Caspase activity, Cis+ versus Cis− (PC-9/CDDP cell; control siRNA system, cisplatin 0.3 μM): no difference

RPN2 siRNA: dsRNA including a sense chain of Sequence No. 3 and an antisense chain of Sequence No. 4 (sense GGCCACUGUUAAACUAGAACA; antisense UUCUAGUUUAACAGUGGCCUG; listed as RNA, chemistry not given here; listed as Homo sapiens)
Caspase activity (MCF7-ADR-Luc cells [1]; 1 nM docetaxel, vs control siRNA): induced strongly
Caspase activity (apoptosis) (MCF7-ADR-Luc cells [1]; in the absence of DOC): apoptosis is induced
nucleus morphology by Hoechst staining (aggregation, fragmentation) (MCF7-ADR-Luc cells [2]): apoptosis is induced
RPN2 gene expression suppressed to (RPN2 gene [3]): about 25%
tumor volume (MCF7-ADR-Luc cells [4]): significant tumor shrinkage
RPN2 gene expression suppressed by, in comparison with control siRNA group (RPN2 gene [5]; dosed 6 weeks after transplant): about 40%
RPN2 gene expression suppressed by, in comparison with control siRNA group (RPN2 gene [5]; dosed 7 days after transplant): about 20%
apoptosis cells in tumor (TUNEL staining) (MCF7-ADR-Luc cells [6]): many apoptosis cells were found
Caspase activity (apoptosis) (PC-9/CDDP cell; cisplatin-treated (0.3 μM, Cis+)): significant apoptosis was induced
Caspase activity (apoptosis increase) (PC-9/CDDP cell; cisplatin-untreated (Cis−)): slight
cancer cell growth suppression (luminescence intensity, RLU) (HepG2; HepG2, siRNA alone, Lipofectamine 2000, 3 days): showed cancer cell growth suppression effects alone
cancer cell growth suppression (luminescence intensity, RLU) (HepG2; HepG2, siRNA with 1 nM DOC, 3 days): potentiating the cancer cell growth suppression effects of DOC

GL3 siRNA: luciferase siRNA: dsRNA including a sense chain of Sequence No. 7 and an antisense chain of Sequence No. 8 (sense CUUACGCUGAGUACUUCGANN; antisense UCGAAGUACUCAGCGUAAGNN; chemistry not given here; listed as Homo sapiens)
suppression of luciferase activity in comparison with the control siRNA (Luciferase gene (GL3)): 80%
